Key:
Nk3R = molecular target: T1, Nk3R (Mus musculus, UniProt P47937); assay: Resident intruder assay (aggression), osanetant; format: in vivo; design: from tissue; host or cells: Living mice (wild-type C57Bl6/N males, Charles River)
T1 sequence (P47937 1-452): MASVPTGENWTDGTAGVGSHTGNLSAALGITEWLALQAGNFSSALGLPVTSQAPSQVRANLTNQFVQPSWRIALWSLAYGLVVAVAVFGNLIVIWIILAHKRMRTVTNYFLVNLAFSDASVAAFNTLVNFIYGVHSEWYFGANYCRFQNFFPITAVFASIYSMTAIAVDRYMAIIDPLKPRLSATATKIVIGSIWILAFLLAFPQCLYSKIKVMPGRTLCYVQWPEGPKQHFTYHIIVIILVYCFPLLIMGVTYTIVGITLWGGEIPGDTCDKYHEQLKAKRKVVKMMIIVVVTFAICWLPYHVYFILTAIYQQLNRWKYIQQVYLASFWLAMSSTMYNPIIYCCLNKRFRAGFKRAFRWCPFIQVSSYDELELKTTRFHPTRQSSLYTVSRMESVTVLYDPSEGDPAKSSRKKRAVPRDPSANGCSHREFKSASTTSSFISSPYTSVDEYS
Method: Testing for aggression using the resident intruder assay (Blanchard et al., 2003; incorporated by reference in its entirety) was performed as previously described (Hong et al., 2015; Hong et al., 2014; Lee et al., 2014; incorporated by reference in their entirety). Briefly, experimental mice (“residents”) were transported in their homecage to a novel behavior testing room (cagemates in group housed mice were removed from the homecage prior to transport for this and all other behavioral tests), where they acclimated for 5-15 minutes. Homecages were then slotted into a customized behavioral chamber lit with a surround panel of infrared lights and equipped with two synchronized infrared video cameras (Pointgrey) placed at 90-degree angles from each other to allow for simultaneous behavior recording with a front and top view. Synchronized video was acquired using Hunter 4.0 software (custom, Pietro Perona lab, Caltech). Following a two-minute baseline period, an unfamiliar male BALB/c mouse (“intruder”) was placed in the homecage of the resident for 10 minutes and mice were allowed to freely interact. Group housed BALB/c males were used as intruders because they are a relatively submissive strain, thereby reducing any intruder-initiated fighting. Behavior videos were hand-annotated by an observer blind to experimental conditions (Behavior Annotator, Piotr's MATLAB toolbox; http://vision.ucsd.edu/˜pdollar/toolbox/doc/). Fighting bouts were scored on a frame-by-frame basis and were defined as a frame during which the resident male was engaged in an episode of biting or intense aggressive behavior immediately surrounding a biting episode. Annotation files were then batch analyzed for behavior, including number of fighting bouts, using in-house customized programs in MATLAB (A. Kennedy, Caltech).
(§1) Mice were administered the Nk3R antagonist osanetant (Axon Medchem, Axon 1533) either systemically or intra-brain region. Osanctant was dissolved in saline with 0.1% Tween 20 (vehicle). For systemic administration mice received an intraperitoneal (i.p.) injection (5 mg/kg) 20 minutes prior to behavioral testing. For microinfusions, guide cannulas were removed from mice and replaced with injector cannulas (Plastics One), which protruded 0.5 mm from the tip of the guide cannula. Injectors were attached to 5 μl Hamilton syringes with PE tubing (Plastics One) and mounted on a microinfusion pump (Harvard Apparatus) for controlled infusion of osanetant (0.3 μl vehicle with 375 ng dose per site injected over 6 minutes). For experiments using systemic administration of clozapine-N-oxide (CNO), CNO (Enzo Life Sciences-Biomol, BML-NS105-0005) was dissolved in saline (9 g/L NaCl) and injected (i.p.) at 5 mg/kg for hM4DREADD silencing or 2 mg/kg for hM3DREADD activation 20 minutes prior to behavioral testing. CNO was also administered chronically in drinking water (0.5 mg CNO/100 ml water).

[1] = molecular target: T2, hM3DREADD in Tac2+ neurons (Homo sapiens, UniProt P20309, A239G/Y149C); assay: Behavioral assays in group housed Tac2-Cre mice, CNO activation (hM3DREADD) with or without Tac2 cDNA; format: in vivo, mouse
T2 construct: host or cells: Tac2+ neurons of group-housed Tac2-Cre mice, transduced in vivo by intravenous AAV-PHP.B-hSyn-DIO-hM3D-mCherry, with or without the Tac2 cDNA virus
Method: The AAV-hSyn-DIO-Tac2-P2A-mCherry, AAV-hSyn-DIO-hM3D-mCherry, and AAV-hSyn-DIO-mCherry recombinant AAV genomes were separately packaged into the AAV-PHP.B capsid by triple transfection of HEK293T cells and purified with iodixanol step gradients as previously described (Deverman et al., 2016; incorporated by reference in its entirety). 5×10^11 vector genomes (vg) of each virus were administered intravenously (via the retro-orbital sinus) to Tac2-Cre animals individually or in combination. To equalize the amount of virus given to each mouse, 5×10^11 vg of AAV-PHP.B-hSyn-DIO-mCherry was administered to each animal to bring the amount of virus up to the amount injected in the double Tac2^+ hM3DREAAD group. Each animal received a total vector dose of 1×10^12 vg.
as §1
These viruses were intravenously injected (individually or in combination) into GH Tac2-Cre mice (FIGS. 14A-T). […]

T2 sequence (P20309 whole entry Y149C/A239G): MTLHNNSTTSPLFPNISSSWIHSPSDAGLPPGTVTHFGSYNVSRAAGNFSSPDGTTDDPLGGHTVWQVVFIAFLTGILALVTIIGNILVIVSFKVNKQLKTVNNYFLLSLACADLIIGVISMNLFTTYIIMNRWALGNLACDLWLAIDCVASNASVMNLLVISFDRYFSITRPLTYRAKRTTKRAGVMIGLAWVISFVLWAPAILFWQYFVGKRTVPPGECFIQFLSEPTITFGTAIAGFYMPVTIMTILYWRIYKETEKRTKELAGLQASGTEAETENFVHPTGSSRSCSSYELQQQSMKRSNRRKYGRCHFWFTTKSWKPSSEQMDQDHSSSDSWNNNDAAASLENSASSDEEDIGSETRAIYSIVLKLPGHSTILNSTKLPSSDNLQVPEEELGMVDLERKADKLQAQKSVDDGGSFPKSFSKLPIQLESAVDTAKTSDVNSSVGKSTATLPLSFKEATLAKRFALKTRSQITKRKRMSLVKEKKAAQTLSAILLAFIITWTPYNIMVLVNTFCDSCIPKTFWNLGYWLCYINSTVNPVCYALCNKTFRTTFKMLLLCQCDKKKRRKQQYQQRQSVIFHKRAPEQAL

aggression promoted by sexual experience (Nk3R; 2 weeks co-habitation with a female, no isolation, systemic osanetant) | SIS-enhanced aggression (Nk3R; SIS mice (2 weeks isolation), osanetant 5 mg/kg i.p. 20 min before test) | SIS-enhanced aggression (Nk3R; SIS mice (2 weeks isolation), osanetant 5 mg/kg i.p. 20 min before test, listed as Osanetant) | SIS-enhanced aggression (Nk3R; osanetant daily during two-week isolation, tested off-drug) | aggression (Nk3R; osanetant injection into CeA) | SIS-induced aggression (Nk3R; osanetant microinfusion into DMH) | SIS-induced aggression (Nk3R; osanetant microinfusion into DMH, listed as Osanetant) | SIS-induced aggression (Nk3R; osanetant microinfusion into dBNSTa) | SMILES | SIS-like behavioral effects (increased aggression, persistent freezing to threats) ([1]; group housed Tac2-Cre mice, Tac2 cDNA plus hM3DREADD viruses, CNO in drinking water 2 weeks and 2 mg/kg i.p. before test) | SIS-like behavioral effects ([1]; group housed Tac2-Cre mice, activation of Tac2+ neurons on its own (hM3DREADD, CNO)) | SIS-like behavioral effects ([1]; group housed control mice, mCherry-only virus, treated with CNO)
had no effect | blocked | strongly reduced | prevented | unaffected | abolished | selectively blocked | no effect | CC(=O)N(C)C1(c2ccccc2)CCN(CCC[C@]2(c3ccc(Cl)c(Cl)c3)CCCN(C(=O)c3ccccc3)C2)CC1 [osanetant, N-(1-{3-[(3R)-1-benzoyl-3-(3,4-dichlorophenyl)piperidin-3-yl]propyl}-4-phenylpiperidin-4-yl)-N-methylacetamide] |  |  | 
 |  |  |  |  |  |  |  | C[N+]1([O-])CCN(C2=Nc3cc(Cl)ccc3Nc3ccccc32)CC1 [CNO, clozapine-N-oxide] | recapitulated key behavioral effects of SIS | insufficient | No such effects
